Assay results as given in patent US20130131062A1, “PYRIDAZINONES AND FURAN-CONTAINING COMPOUNDS” (priority 2006, published 2013).
Read-outs that look alike come from different tables or passages of the source.

What was measured:
[1] = system: H1650; experiment: Non Small Cell Lung Cancer Proliferation Assay (Alamar Blue); type: cell-based, human; settings: Homo sapiens, NCI-H1650; primary screening; 10 μM compound in 1% DMSO (v/v); read-out: percentage inhibition H1650
Experimental: (§1) Non Small Cell Lung Cancer cell lines are grown and maintained in Corning 175 cm2 flasks in RPMI 1640 media supplemented with 10% FBS, 1% antibiotic solution, 1% additional glutamine and pyruvate. These cells have a doubling time of 1-2 days. All cell types are adherent and grow in colonies. The cells should be kept at a density between 50,000 cells/mL-500,000 cells/mL to provide for optimum growth and adequate nutrition. The cell line should be maintained at 37° C. in a humidified atmosphere with 5% CO2 in a sterile cell culture incubator.
(§2) To perform the assay, the Non Small Cell Lung Cancer lines are diluted in media and plated into 384 well microplates at a final density of 250 cells in 45 μL. To ensure consistency and minimal pipetting error, the cells are plated using the Multidrop 384 with the following settings: Rocker Switch set at 384, Volume 45 and Column 24.
(§3) Low Controls for this assay are made by treating Non Small Cell Lung Cancer cells with 5 ul of staurosporine at 250 uM in 10% DMSO and 1% SDS. [Final concentration in this assay is 25 uM staurosporine in 1% DMSO and 0.1% SDS.]
(§4) High Controls for this assay are made by treating Non Small Cell Lung Cancer cells with 5 ul of 10% DMSO. [Final concentration in this assay is 1% DMSO].
(§5) The remaining wells of the 384 microplate may be treated with different compounds depending on the study. Important Note: All compounds for testing in this assay should be done at the final concentration of 1% DMSO.
(§6) After addition, the cells are placed in cell culture incubator at 37° C. for 48 hours for complete treatment.
(§7) After drug treatment, cytotoxicity is measured by Alamar Blue reduction. 5 μL of Alamar Blue is added to the 384 microplates using the Flexdrop.
(§8) The cells are incubated for 48 hours at 37° C. to complete the Alamar Blue reduction.
(§9) The final step in the assay is to measure the amount of Alamar Blue reduction. […] The Alamar Blue fluorescence is measured at an excitation of 530 nm and emission of 590 nm.
(§10) For the NSCLC project, the cell based assay was screened against a small molecule library of approximately 200,000 compounds. The compound library is stored in our automated robotic freezer (Biophile) at −20° C. in 100% DMSO. Compound freeze and thaw cycles are kept to a minimum. Compounds for use are diluted into the appropriate concentration and plated into 384 well microplates using our custom built low volume 384-well head tool (TPS 384, Apricot Designs Inc., CA, USA). This assay was performed on a fully automated linear track robotic platform (CRS F3 Robot System, Thermo Electron Corp., Ontario, Canada) utilizing several integrated peripherals for plate handling, liquid dispensing, and readout detection. First, non-small cell lung cancer cell lines are dispensed into 384 well microplates (Corning #3712 Tissue Culture Treated Plate, Corning, N.Y., USA) with 5 μL of test compounds at 100 uM in 10% DMSO for screening studies or 1 mM in 10% DMSO to 50 nM in 10% DMSO for dose response studies. The microplates are then placed at 37° C. for 48 hours to complete treatment of cells with compounds. Next, 5 ul of alamar blue was added using a liquid dispenser (FlexDrop Precision Dispenser, Perkin Elmer, Mass., USA) and incubated for 48 hours at 37° C. The alamar blue prompt fluorescence was measured on Victor V (Victor^3 V, Perkin Elmer, Mass., USA) and output data files were loaded into ORIS (Oncology Research Informatics System, MSKCC, NY, USA), a screening data acquisition and analysis platform.

[2] = system: H1975; experiment: as above; type: cell-based, human; settings: 10 μM compound in 1% DMSO (v/v)
Experimental: as §1, §2, §3, §4, §5, §6, §7, §8, §9, §10

[3] = system: H2030; experiment: as above; type: cell-based, human
Experimental: (§11) These cells have a doubling time of 1-2 days. All cell types are adherent and grow in colonies. The cells should be kept at a density between 50,000 cells/mL-500,000 cells/mL to provide for optimum growth and adequate nutrition. The cell line should be maintained at 37° C. in a humidified atmosphere with 5% CO2 in a sterile cell culture incubator.
(§12) To perform the assay, the Non Small Cell Lung Cancer lines are diluted in media and plated into 384 well microplates at a final density of 250 cells in 45 μL.
as §4
(§13) Important Note: All compounds for testing in this assay should be done at the final concentration of 1% DMSO.
as §6
(§14) After drug treatment, cytotoxicity is measured by Alamar Blue reduction.
as §8, §9
as §10, with “Compounds for use are diluted into the appropriate concentration and plated into 384 well microplates using our custom built low volume 384-well head tool (TPS 384, Apricot Designs Inc., CA, USA).” left out, “First, non-small cell lung cancer cell lines are dispensed into 384 well microplates (Corning #3712 Tissue Culture Treated Plate, Corning, N.Y., USA) with 5 μL of test compounds at 100 uM in 10% DMSO for screening studies or 1 mM in 10% DMSO to 50 nM in 10% DMSO for dose response studies.” left out

[4] = system: H3255; experiment: as above; type: cell-based, human
Experimental: as §11, §12, §4, §13, §6, §14, §8, §9
as §10, with “Compounds for use are diluted into the appropriate concentration and plated into 384 well microplates using our custom built low volume 384-well head tool (TPS 384, Apricot Designs Inc., CA, USA).” left out, “First, non-small cell lung cancer cell lines are dispensed into 384 well microplates (Corning #3712 Tissue Culture Treated Plate, Corning, N.Y., USA) with 5 μL of test compounds at 100 uM in 10% DMSO for screening studies or 1 mM in 10% DMSO to 50 nM in 10% DMSO for dose response studies.” left out

[5] = system: 15 non small cell lung cancer lines representing various EGFR and KRAS mutations; experiment: Dose response studies against 15 NSCLC lines (alamar blue); type: cell-based, human
Experimental: Dose response studies against 34 compounds from the pyridazinone and phenylfuran-carboxamide class were conducted. […] In addition, Tarceva was included in these dose response studies.
The dose response studies were done with the following standard procedure. First, the cells were counted and dispensed at 250 cells/well into 384-well microplates with compound. The cells were incubated for 48 hours at 37 C to complete treatment, and then alamar blue was added for an additional 48 hours. Finally, alamar blue reduction was measured and the data was loaded into ORIS, our data screening acquisition platform.

[6] = in vitro; settings: human, NHBE CytoTox (uM)
Experimental: NHBE (normal human bronchiolar epithelial cells) are primary cells obtained from donor lungs and commercially available from Cambrex. The HPLID (human peripheral lung epithelial) cell line has been immortalized with the SV40 large T-antigen. WI-38: human lung fibroblast cell line. HPLID, NHBE and WI-38 cells will serve as controls in the chemical screens. WT: wildtype; WT*: over-expressed wildtype.
Compounds were tested in dose response studies from 10 μM to 5 nM against several non small cell lung cancer lines: H358, H827, H1118, H1650, H1734, H1975, H2030, and H3255, and were also studied in a 72 hour cytotoxicity assay against the NHBE and WI-38 cell lines.

[7] = Homo sapiens, H23 (EGFR WT, KRAS G12C), 12 point doubling dilution 10 uM to 5 nM, alamar blue, read-out: IC50 H23
[8] = Homo sapiens, PC9 (EGFR DclE746-A750, KRAS WT), 12 point doubling dilution 10 uM to 5 nM, alamar blue, read-out: IC50 PC9
[9] = Homo sapiens, read-out: IC50 H23
[10] = Homo sapiens, read-out: IC50 H1118
[11] = Homo sapiens, read-out: IC50 HPL1D
[12] = Homo sapiens, read-out: IC50 PC9
[13] = HPL1D (SV40-immortalized human lung epithelian cells, EGFR WT, KRAS WT), 12 point doubling dilution 10 uM to 5 nM, alamar blue, read-out: IC50 HPL1D

N#Cc1ccccc1-n1nc(C(=O)c2cccs2)cc(-c2nc3ccccc3[nH]2)c1=N [compound 186926]
inhibition at 10 µM [1]: 27%
inhibition at 10 µM ([2]; Homo sapiens, NCI-H1975, primary screening, read-out: percentage inhibition H1975): 81%
inhibition at 10 µM ([3]; Homo sapiens, NCI-H2030, primary screening, 10 μM compound in 1% DMSO (v/v), read-out: percentage inhibition H2030): 2%
inhibition at 10 µM ([4]; Homo sapiens, NCI-H3255, primary screening, 10 μM compound in 1% DMSO (v/v), read-out: percentage inhibition H3255): 52%

O=c1c(Br)c(Br)cnn1-c1ccccn1 [compound 267073]
IC50 [5, 7]: 70 nM
IC50 [5, 8]: 420 nM

O=C(Nc1ccc(Cl)cc1)c1ccc([N+](=O)[O-])o1 [compound 98698, 5-nitro-furan-2-carboxylic acid (4-chloro-phenyl)-amide]
CONFIRMATION [%] 1975 ([2]; confirmation, percentage inhibition): 57%
CONFIRMATION [%] 2030 ([3]; confirmation, percentage inhibition, 10 μM compound in 1% DMSO (v/v)): 98%
IC50 [5, 9]: 600 nM
IC50 [5, 10]: 530 nM
IC50 [5, 11]: > 10000 nM
IC50 [5, 12]: 1580 nM

CCc1cccc(-n2ncc(Cl)c(Cl)c2=O)c1 [compound 267062]
IC50 [5, 8]: 1510 nM

Cc1ccc(-n2ncc(Cl)c(Cl)c2=O)cc1 [compound 257016]
IC50 [5, 7]: 320 nM

Cc1cccc(-n2ncc(Cl)c(Cl)c2=O)c1 [compound 104122, 4,5-dichloro-2-m-tolyl-2H-pyridazin-3-one]
IC50 at 72 h [6]: 3.4 µM
IC50 [5, 9]: 210 nM
IC50 [5, 10]: 340 nM
IC50 [5, 11]: 280 nM
IC50 [5, 12]: 650 nM

O=C(Nc1ccc(F)c(Cl)c1)c1ccc([N+](=O)[O-])o1 [compound 87200]
IC50 [5, 13]: > 10000 nM

CCCCc1cccc(-n2ncc(Cl)c(Cl)c2=O)c1 [compound 267063]
IC50 ([5]; H2444 (EGFR WT, KRAS G12V), 12 point doubling dilution 10 uM to 5 nM, alamar blue, read-out: IC50 H2444): 5280 nM

O=c1c(Cl)c(Cl)cnn1-c1ccc(Cl)cc1Cl [compound 267077]
IC50 ([4]; dose response 10 μM to 5 nM): 1110 nM
IC50 [5, 8]: > 10000 nM

O=c1c(Cl)c(Cl)cnn1-c1ccccn1 [compound 267090]
IC50 ([5]; Homo sapiens, NCI-H820, H820 (EGFR T790M/DelE746-A750, KRAS WT), 12 point doubling dilution 10 uM to 5 nM, alamar blue, read-out: IC50 H820): 410 nM
IC50 [5, 7]: 80 nM

Cc1ccc(-n2ncc(Cl)c(Cl)c2=O)cc1Cl [compound 267070]
IC50 [5, 13]: > 10000 nM
IC50 [5, 7]: > 10000 nM
IC50 [5, 8]: > 10000 nM

O=c1c(Br)c(Br)cnn1-c1cccc(C(F)(F)F)c1 [compound 267072]
IC50 ([3]; dose response 10 μM to 5 nM): 1420 nM
